Test results: patent US5532265A, “Treatment of central nervous system inflammatory disease with matrix metalloprotease inhibitors” (The Board of Trustees of the Leland Stanford Junior …, priority 1994, dated 1996)

Experiments:
[1] = system: gelatinase A and B in the CSF from animals with EAE; test: In vitro inhibition of gelatinase activity in CSF (SDS/PAGE zymography); assay type: biochemical, mice
Protocol: In vitro inhibition of gelatinase activity. Gelatinase activity in a pooled CSF sample from animals with clinical signs of EAE (grade 2-3 for 4-5 d) was determined by SDS/PAGE zymography. CSF was applied without prior denaturation to a single-well 7.5% (wt/vol) polyacrylamide gel containing 0.1% (wt/vol) SDS to which 0.1% (wt/vol) tissue culture grade gelatin (Sigma Chemical Co., St. Louis, Mo.) was added and copolymerized. […] The gel (7 cm×10 cm×0.75 mm) was run for approximately 2 h at 20 mA. After electrophoresis the gel was washed (washing buffer: 50 mM Tris-HCL, 10 mM CaCl2, 0.02% (wt/vol) NaN3, 2.5% (vol/vol) Triton X-100, pH 7.5) to remove the SDS and sliced into strips. The resulting strips were incubated separately at 37° C. during 24 h (same buffer as for the washing, containing only 1% [vol/vol] Triton X-100) for development of the enzyme activity, stained with Coomassie brilliant blue R-250 and destained in methanol/acetic acid. Gelatinase activity was detected as unstained bands on a blue background. To assess the effect of protease inhibitors on the gelatinase activity present in the CSF, metalloprotease inhibitors (dissolved in DMSO) were added to the incubation buffer. GM 6001 was used at final concentrations from 0.1 to 33 μM; 1,10-phenanthroline (Sigma Chemical Co.) was used as a positive control at 2.5 mM, and the noninhibitor lane was incubated in 0.5% (vol/vol) DMSO.

[2] = In vivo inhibitor kinetics (GM 6001 concentration in CSF); design: species or system mice; settings: for concentration at 3 h: for at least 3 h
Protocol: In vivo inhibitor kinetics. Normal noninduced animals or animals with clinical signs of EAE for 2 d were given a single intraperitoneal injection of 4 mg GM 6001 and euthanized by CO2 inhalation after various time intervals. CSF was taken by suboccipital puncture. Pooled CSF from five animals per time point was frozen immediately at -70° C. GM 6001 concentrations were determined by reversed-phase HPLC by Bay Bioanalytical Laboratories, Richmond, Calif. was diluted into 20% acetonitrile in water and chromatographed on a C-18 reversed-phase column with fluorescence detection. Linearity was determined by spiking blank CSF with increasing amounts of GM 6001. The amount of GM 6001 in CSF samples was calculated based on recovery of GM 6001 and the internal standard in spiked samples. The lower limit for quantification of GM 6001 in the CSF samples was 60 ng/rnl.

[3] = system: EAE in SJL/J mice; test: Clinical scoring of EAE; assay type: in vivo; design: key to Change in average cumulative score During treatment / Change in average cumulative score After treatment: change in cumulative EAE grade; 0 = no signs, 5 = death
Protocol: EAE induction, Female SJL/J mice (Jackson Laboratory, Bar Harbor, Me.) were used at 5-7 week of age. […] PLP peptide 139-151 was prepared by continuous flow solid phase synthesis according to the sequence (SEQ ID NO 1 ) HCLGKWLGHPDKF by the Protein and Nucleic Acid Facility, Beckman Center, Stanford, Calif. Peptide purity was examined by HPLC analysis and peptide identity was confirmed by amino-acid composition analysis.
EAE was scored clinically as follows: no neurological signs=grade 0, weak tail=grade 1, wobbly walk or limb paresis=grade 2, limb paralysis=grade 3, inability to move=grade 4, death=grade 5. Easy access to food and water was provided and animals with grade 3 or 4 received daily parenteral fluid.
[…] The same volume of vehicle was used as a control treatment. Animals were treated daily either from the day of disease induction for 20 d or from the onset of clinical signs for 10 d (randomized for the different treatment groups).

[4] = system: EAE in SJL/J mice; test: Blood-brain barrier permeability (Evans blue); assay type: in vivo
Protocol: Mice were injected intravenously with 1% (wt/vol) Evans blue (Fisher Scientific Co., Fair Lawn, N.J.) in PBS at a dosage of 4 μl/g body weight. After 1 h the animals were euthanized by CO2 inhalation and perfused with PBS via the left ventricle. Brain and spinal cord were dissected and cut longitudinally. Half of the CNS was used for histopathological evaluation. The other half was weighed and tissue samples were then extracted for 3 d in formamide (5 μl/mg tissue) and the extracts centrifuged for 5 min at 500 g. Evans blue concentration in the extracts was determined by measuring the absorbance at 650 nm. The blood-brain barrier permeability index was calculated by dividing the value for each sample by the corresponding (brain or spinal cord) mean value of four normal noninduced animals.

[5] = system: EAE in SJL/J mice; test: Histopathology of brain and spinal cord (inflammation, demyelination); assay type: in vivo; settings: for Demyelination Brain + SC / Inflammation Brain / Inflammation Spinal Cord: 1 × 1.33 mg/d i.p.; for Demyelination Brain + SC: demyelination score; for Inflammation Brain / Inflammation Spinal Cord: total inflammatory score
Protocol: Sections were stained with hematoxylin and eosin, Kluver-Barrera and Giemsa stain. Histopathology was assessed as follows. Individual inflammatory lesions were scored as 1=perivascular inflammatory cuff≤three cells thick, 2=>three cells thick. 3=parenchymal infiltrate. The total inflammatory score was then calculated by adding all the scores for individual lesions from all the sections for a given sample. The demyelination score was calculated the same way as inflammatory score, with 1=demyelinated rim around infiltrate, 2=demyelination extending into noninfiltrated tissue.

[6] = target: gelatinase B; settings: cited from earlier work
[7] = animals with EAE, single intraperitoneal dose of 4 mg
[8] = Experiment 1, from disease induction for 20 d, 2X/d 2.00 mg i.p.
[9] = Experiment 1, from onset of clinical signs for 10 d, 2X/d 2.00 mg i.p.
[10] = Experiment 2, from disease induction for 20 d, 1X/d 0.13 mg i.p.
[11] = Experiment 2, from disease induction for 20 d, 1X/d 0.40 mg i.p.
[12] = Experiment 2, from disease induction for 20 d, 1X/d 1.33 mg i.p.
[13] = Experiment 2, from disease induction for 20 d, 1X/d 4.00 mg i.p.
[14] = Experiment 2, from onset of clinical signs for 10 d, 1X/d 0.13 mg i.p.
[15] = Experiment 2, from onset of clinical signs for 10 d, 1X/d 0.40 mg i.p.
[16] = Experiment 2, from onset of clinical signs for 10 d, 1X/d 1.33 mg i.p.
[17] = Experiment 2, from onset of clinical signs for 10 d, 1X/d 4.00 mg i.p.
[18] = 3 days of treatment from onset of clinical signs
[19] = 10 days of treatment from onset of clinical signs

CNC(=O)[C@H](Cc1c[nH]c2ccccc12)NC(=O)[C@@H](CC(=O)NO)CC(C)C [GM 6001, N-[2(R)-2-(hydroxamidocarbonylmethyl)-4-methylpentanoyl]-L-tryptophan methylamide]
inhibition of gelatinase A compared with gelatinase B in CSF ([1]; CSF from animals with EAE): equally well inhibited
inhibition of gelatinase activity in CSF ([1]; GM 6001 at 1 μM to 33 μM, pooled CSF from animals with EAE, zymography): completely inhibited all gelatinase activity
inhibition of gelatinase activity in CSF ([1]; GM 6001 at 0.1 and 0.33 μM, pooled CSF from animals with EAE, zymography): partial inhibition
duration of detectable levels in the CSF [2, 7]: at least 4 h
time after injection at which detectable levels in the CSF start [2, 7]: 30 min
concentration at 8 h ([2]; mouse, csf, ip, animals with EAE, single i.p. dose of 4 mg, after 8 hours): 100 ng/mL
concentration at 16 h ([2]; mouse, csf, ip, animals with EAE, single i.p. dose of 4 mg, after 16 hours): < 60 ng/mL
concentration at 3 h ([2]; mouse, csf, ip, animals with EAE, single i.p. dose of 4 mg): 100 to 200 ng/mL
concentration at 3 h ([2]; mouse, csf, ip, animals with EAE, single i.p. dose of 4 mg, converted from ng/ml): 250 to 500 nM
concentration in the CSF ([2]; normal noninduced animals, single i.p. dose of 4 mg): never rose above the detection limit
efficacy at low dose when given from disease induction ([3]; 0.13 mg/d once daily, P<0.05 (4 and 1.33 mg/d P<0.005)): still effective
efficacy of single daily dose compared with 2×2 mg/d ([3]; 4 mg/d once daily i.p., both treatment schedules): comparable efficacy
Change in average cumulative score After treatment [3, 8]: 9.9 ± 2.17
Change in average cumulative score During treatment [3, 8]: 7.0 ± 2.57
Change in average cumulative score After treatment [3, 9]: -7.2 ± 2.69
Change in average cumulative score During treatment [3, 9]: -6.5 ± 2.08
Change in average cumulative score After treatment [3, 10]: 18.0 ± 9.82
Change in average cumulative score During treatment [3, 10]: 7.7 ± 3.09
Change in average cumulative score After treatment [3, 11]: 23.9 ± 4.96
Change in average cumulative score During treatment [3, 11]: 11.3 ± 0.94
Change in average cumulative score After treatment [3, 12]: 12.0 ± 3.83
Change in average cumulative score During treatment [3, 12]: 3.4 ± 1.77
Change in average cumulative score After treatment [3, 13]: 22.2 ± 4.61
Change in average cumulative score During treatment [3, 13]: 2.4 ± 1.16
Change in average cumulative score After treatment [3, 14]: -10.6 ± 5.67
Change in average cumulative score During treatment [3, 14]: 2.0 ± 1.92
Change in average cumulative score After treatment [3, 15]: -7.9 ± 4.44
Change in average cumulative score During treatment [3, 15]: -0.3 ± 2.03
Change in average cumulative score After treatment [3, 16]: -15.0 ± 5.79
Change in average cumulative score During treatment [3, 16]: -4.1 ± 1.81
Change in average cumulative score After treatment [3, 17]: -7.1 ± 7.86
Change in average cumulative score During treatment [3, 17]: -4.3 ± 2.69
clinical severity of the disease compared with the vehicle-treated group ([3]; FIG. 1, from disease induction for 20 d, 2×2 mg/d i.p., 10 animals per group): significantly reduced
disease score, treatment of clinical relapse ([3]; FIG. 3, 1×4 mg/d for 10 days from onset of clinical relapse, nine animals): statistically significant difference
recovery from the drop in body weight associated with the onset of EAE ([3]; experiment 2): recovered faster
clinical scores after start of treatment ([3]; from onset of clinical signs for 10 d, 2×2 mg/d, P<0.005 vs vehicle up to two days after treatment): decreased the day after the start of treatment
animals returned to score 0 (clinically normal) within 12 d following the onset of clinical signs ([3]; from onset of clinical signs for 10 d, 2×2 mg/d, vehicle 3 out of 10): 8 out of 10
animals that returned to score 0 and had a clinical disease relapse during the follow-up period ([3]; of the 8 recovered animals, 2×2 mg/d from onset for 10 d, vehicle all 3): 7 animals
reduction of disease severity when treated from disease onset ([3]; once daily 4, 1.33, 0.40, 0.13 mg/d, P<0.05, FIG. 2): only 4 and 1.33 mg/d were significantly effective
Blood Brain Barrier Index Spinal Cord ([4]; 3 days of treatment from onset of clinical signs, 1 × 1.33 mg/d i.p.): 0.7 ± 0.12
Blood Brain Barrier Index Brain ([4]; 3 days of treatment from onset of clinical signs, 1 × 1.33 mg/d i.p., ratio of permeability for Evan's blue): 1.1 ± 0.16
Blood Brain Barrier Index Spinal Cord ([4]; 10 days of treatment from onset of clinical signs, 1 × 1.33 mg/d i.p.): 1.1 ± 0.11
blood-brain barrier index ([4]; after 10 d of disease, 1×1.33 mg/d from onset, vehicle significantly elevated, P<0.05): normal
Demyelination Brain + SC [5, 18]: 3.7 ± 0.88
Inflammation Brain [5, 18]: 31.7 ± 5.17
Inflammation Spinal Cord [5, 18]: 14.7 ± 1.67
Demyelination Brain + SC [5, 19]: 2.3 ± 0.63
Inflammation Brain [5, 19]: 21.0 ± 3.14
Inflammation Spinal Cord [5, 19]: 15.0 ± 3.24
inflammatory and demyelination scores compared with vehicle ([5]; after 3 and 10 d of treatment, 1×1.33 mg/d from onset, differences not statistically significant): lower after 3 and 10 d of treatment with GM 6001 in all but one group
Ki [6]: 0.2 nM

c1cnc2c(c1)ccc1cccnc12 [phenanthroline, 1,10-phenanthroline, reference compound]
inhibition of gelatinase activity in CSF ([1]; phenanthroline 2.5 mM, positive control): served as an inhibitory control
